Measurements published in patent US20250154144A1 (CHILDREN'S HOSPITAL MEDICAL CENTER, priority 2021, published 2025).
Like-named read-outs stand apart in the source and are kept apart here.

Tests used:
MOLM14(D835Y) cells = assay type: cell-based; settings: MOLM14(D835Y), 10 × 10
THP1 cells = test: Combination drug screening, Cell Titer Glo, 10 × 10 matrix, THP1 cells; assay type: cell-based
[1] = title compound starting conc. 20000 nM + (+)-BAY-1251152 starting conc. 1000 nM
[2] = title compound starting conc. 20000 nM + Azacitidine (5-Azacytidine) starting conc. 20000 nM
[3] = title compound starting conc. 20000 nM + Palbociclib starting conc. 10000 nM
[4] = title compound starting conc. 20000 nM + Prednisolone starting conc. 10000 nM
[5] = title compound starting conc. 20000 nM + TNO-155 starting conc. 10000 nM
[6] = title compound starting conc. 20000 nM + Venetoclax (ABT-199) starting conc. 2000 nM
[7] = title compound starting conc. 20000 nM + Venetoclax (ABT-199) starting conc. 20000 nM
[8] = starting conc. 2000 nM, with (+)-BAY-1251152 starting conc. 1000 nM
[9] = starting conc. 2000 nM, with Azacitidine (5-Azacytidine) starting conc. 20000 nM
[10] = starting conc. 2000 nM, with Palbociclib starting conc. 10000 nM
[11] = starting conc. 2000 nM, with Prednisolone starting conc. 10000 nM
[12] = starting conc. 2000 nM, with TNO-155 starting conc. 10000 nM
[13] = starting conc. 2000 nM, with Venetoclax (ABT-199) starting conc. 2000 nM
[14] = starting conc. 2000 nM, with Venetoclax (ABT-199) starting conc. 20000 nM
[15] = starting conc. 20000 nM, with (+)-BAY-1251152 starting conc. 1000 nM
[16] = starting conc. 20000 nM, with Azacitidine (5-Azacytidine) starting conc. 20000 nM
[17] = starting conc. 20000 nM, with Palbociclib starting conc. 10000 nM
[18] = starting conc. 20000 nM, with Prednisolone starting conc. 10000 nM
[19] = starting conc. 20000 nM, with TNO-155 starting conc. 10000 nM
[20] = starting conc. 20000 nM, with Venetoclax (ABT-199) starting conc. 2000 nM
[21] = starting conc. 20000 nM, with Venetoclax (ABT-199) starting conc. 20000 nM
[22] = starting conc. 200 nM, with (+)-BAY-1251152 starting conc. 1000 nM
[23] = starting conc. 200 nM, with Azacitidine (5-Azacytidine) starting conc. 20000 nM
[24] = starting conc. 200 nM, with Palbociclib starting conc. 10000 nM
[25] = starting conc. 200 nM, with Prednisolone starting conc. 10000 nM
[26] = starting conc. 200 nM, with TNO-155 starting conc. 10000 nM
[27] = starting conc. 200 nM, with Venetoclax (ABT-199) starting conc. 2000 nM
[28] = starting conc. 200 nM, with Venetoclax (ABT-199) starting conc. 20000 nM

Cc1cc(-c2nc(C(=O)Nc3cc4oc(N5CCOCC5)nc4nc3N3CC[C@@H](O)C3)co2)ccn1 [CA-4948, reference compound]
Excess HSA Score (MOLM14(D835Y) cells; title compound starting conc. 2000 nM + (+)-BAY-1251152 starting conc. 1000 nM): −153.6
Excess HSA Score (MOLM14(D835Y) cells; title compound starting conc. 2000 nM + Azacitidine (5-Azacytidine) starting conc. 20000 nM): −672.6
Excess HSA Score (MOLM14(D835Y) cells; title compound starting conc. 2000 nM + Palbociclib starting conc. 10000 nM): −930
Excess HSA Score (MOLM14(D835Y) cells; title compound starting conc. 2000 nM + Prednisolone starting conc. 10000 nM): −435.8
Excess HSA Score (MOLM14(D835Y) cells; title compound starting conc. 2000 nM + TNO-155 starting conc. 10000 nM): −1272
Excess HSA Score (MOLM14(D835Y) cells; title compound starting conc. 2000 nM + Venetoclax (ABT-199) starting conc. 2000 nM): −280.9
Excess HSA Score (MOLM14(D835Y) cells; title compound starting conc. 2000 nM + Venetoclax (ABT-199) starting conc. 20000 nM): −1172
Excess HSA Score (MOLM14(D835Y) cells; [1]): −195.3
Excess HSA Score (MOLM14(D835Y) cells; [2]): −612.1
Excess HSA Score (MOLM14(D835Y) cells; [3]): −90.76
Excess HSA Score (MOLM14(D835Y) cells; [4]): −397.1
Excess HSA Score (MOLM14(D835Y) cells; [5]): −1174
Excess HSA Score (MOLM14(D835Y) cells; [6]): −1088
Excess HSA Score (MOLM14(D835Y) cells; [7]): −1078.145
Comments (THP1 cells; [8]): Antagonistic at both
Excess HSA Score (THP1 cells; [8]): 43.42
Comments (THP1 cells; [9]): Synergistic
Excess HSA Score (THP1 cells; [9]): −147.4
Comments (THP1 cells; [10]): Synergistic
Excess HSA Score (THP1 cells; [10]): −41.44
Comments (THP1 cells; [11]): Antagonistic
Excess HSA Score (THP1 cells; [11]): 28.64
Comments (THP1 cells; [12]): Antagonistic
Excess HSA Score (THP1 cells; [12]): 22.1261
Comments (THP1 cells; [13]): Antagonistic
Excess HSA Score (THP1 cells; [13]): 806.5237
Comments (THP1 cells; [14]): Synergistic; Optimal
Excess HSA Score (THP1 cells; [14]): −48.9669
Comments (THP1 cells; [15]): Antagonistic at both
Excess HSA Score (THP1 cells; [15]): 230.5
Comments (THP1 cells; [16]): Synergistic
Excess HSA Score (THP1 cells; [16]): −562.3
Comments (THP1 cells; [17]): Antagonistic
Excess HSA Score (THP1 cells; [17]): 579.4
Comments (THP1 cells; [18]): Synergistic
Excess HSA Score (THP1 cells; [18]): −33.05
Comments (THP1 cells; [19]): Additive
Excess HSA Score (THP1 cells; [19]): −0.9078
Comments (THP1 cells; [20]): Synergistic; Optimal
Excess HSA Score (THP1 cells; [20]): −352.8
Comments (THP1 cells; [21]): Synergistic; Optimal
Excess HSA Score (THP1 cells; [21]): −979.3

Cc1cnc(-c2ccc(-c3ccc(NC(=O)Nc4c(F)cc(F)cc4F)cc3F)c3c2C(=O)NC3)[nH]1 [CG-806, reference compound]
Excess HSA Score (MOLM14(D835Y) cells; title compound starting conc. 200 nM + (+)-BAY-1251152 starting conc. 1000 nM): −340.1
Excess HSA Score (MOLM14(D835Y) cells; title compound starting conc. 200 nM + Azacitidine (5-Azacytidine) starting conc. 20000 nM): −208.9
Excess HSA Score (MOLM14(D835Y) cells; title compound starting conc. 200 nM + Palbociclib starting conc. 10000 nM): −828
Excess HSA Score (MOLM14(D835Y) cells; title compound starting conc. 200 nM + Prednisolone starting conc. 10000 nM): −264.6
Excess HSA Score (MOLM14(D835Y) cells; title compound starting conc. 200 nM + TNO-155 starting conc. 10000 nM): −776.6
Excess HSA Score (MOLM14(D835Y) cells; title compound starting conc. 200 nM + Venetoclax (ABT-199) starting conc. 2000 nM): −1066
Excess HSA Score (MOLM14(D835Y) cells; title compound starting conc. 200 nM + Venetoclax (ABT-199) starting conc. 20000 nM): −258.9
Excess HSA Score (MOLM14(D835Y) cells; [1]): −150.9
Excess HSA Score (MOLM14(D835Y) cells; [2]): −51.33
Excess HSA Score (MOLM14(D835Y) cells; [3]): −199.1
Excess HSA Score (MOLM14(D835Y) cells; [4]): 107.5
Excess HSA Score (MOLM14(D835Y) cells; [5]): −286.9
Excess HSA Score (MOLM14(D835Y) cells; [6]): −481.6
Excess HSA Score (MOLM14(D835Y) cells; [7]): −139.4
Comments (THP1 cells; [22]): Synergistic at both
Excess HSA Score (THP1 cells; [22]): −467.1
Comments (THP1 cells; [23]): Antagonistic
Excess HSA Score (THP1 cells; [23]): 45.86
Comments (THP1 cells; [24]): Antagonistic
Excess HSA Score (THP1 cells; [24]): 74.09
Comments (THP1 cells; [25]): Synergistic
Excess HSA Score (THP1 cells; [25]): −30.78
Comments (THP1 cells; [26]): Antagonistic
Excess HSA Score (THP1 cells; [26]): 12.04
Comments (THP1 cells; [27]): Synergistic; Optimal
Excess HSA Score (THP1 cells; [27]): −1194
Comments (THP1 cells; [28]): Synergistic; Optimal
Excess HSA Score (THP1 cells; [28]): −1904
Comments (THP1 cells; [15]): Synergistic at both
Excess HSA Score (THP1 cells; [15]): −821.7
Comments (THP1 cells; [16]): Synergistic
Excess HSA Score (THP1 cells; [16]): −425.4
Comments (THP1 cells; [17]): Synergistic
Excess HSA Score (THP1 cells; [17]): −65.24
Comments (THP1 cells; [18]): Antagonistic
Excess HSA Score (THP1 cells; [18]): 185.6
Comments (THP1 cells; [19]): Synergistic
Excess HSA Score (THP1 cells; [19]): −333.2
Comments (THP1 cells; [20]): Synergistic; Optimal
Excess HSA Score (THP1 cells; [20]): −9.516
Comments (THP1 cells; [21]): Synergistic; Optimal
Excess HSA Score (THP1 cells; [21]): −1150

CCc1nc(C(N)=O)c(Nc2ccc(N3CCC(N4CCN(C)CC4)CC3)c(OC)c2)nc1NC1CCOCC1 [Gilteritinib hemifumarate, Gilteritinib, reference compound]
Excess HSA Score (MOLM14(D835Y) cells; title compound starting conc. 500 nM + (+)-BAY-1251152 starting conc. 1000 nM): 161.1
Excess HSA Score (MOLM14(D835Y) cells; title compound starting conc. 500 nM + Azacitidine (5-Azacytidine) starting conc. 20000 nM): −848
Excess HSA Score (MOLM14(D835Y) cells; title compound starting conc. 500 nM + Palbociclib starting conc. 10000 nM): −910.3
Excess HSA Score (MOLM14(D835Y) cells; title compound starting conc. 500 nM + Prednisolone starting conc. 10000 nM): −285.8
Excess HSA Score (MOLM14(D835Y) cells; title compound starting conc. 500 nM + TNO-155 starting conc. 10000 nM): −773.9
Excess HSA Score (MOLM14(D835Y) cells; title compound starting conc. 500 nM + Venetoclax (ABT-199) starting conc. 2000 nM): −704
Excess HSA Score (MOLM14(D835Y) cells; title compound starting conc. 500 nM + Venetoclax (ABT-199) starting conc. 20000 nM): −237.3
Excess HSA Score (MOLM14(D835Y) cells; [1]): 43.97
Excess HSA Score (MOLM14(D835Y) cells; [2]): −117
Excess HSA Score (MOLM14(D835Y) cells; [3]): −262.1121
Excess HSA Score (MOLM14(D835Y) cells; [4]): −290.6
Excess HSA Score (MOLM14(D835Y) cells; [5]): −494.5
Excess HSA Score (MOLM14(D835Y) cells; [6]): −876.4
Excess HSA Score (MOLM14(D835Y) cells; [7]): −271.3
Excess HSA Score (THP1 cells; starting conc. 500 nM, with (+)-BAY-1251152 starting conc. 1000 nM): −10.1945
Excess HSA Score (THP1 cells; starting conc. 500 nM, with Azacitidine (5-Azacytidine) starting conc. 20000 nM): −354.4
Excess HSA Score (THP1 cells; starting conc. 500 nM, with Palbociclib starting conc. 10000 nM): −228
Excess HSA Score (THP1 cells; starting conc. 500 nM, with Prednisolone starting conc. 10000 nM): 119.9
Excess HSA Score (THP1 cells; starting conc. 500 nM, with TNO-155 starting conc. 10000 nM): 15.34
Excess HSA Score (THP1 cells; starting conc. 500 nM, with Venetoclax (ABT-199) starting conc. 2000 nM): −95.51
Excess HSA Score (THP1 cells; starting conc. 500 nM, with Venetoclax (ABT-199) starting conc. 20000 nM): −866.3
Excess HSA Score (THP1 cells; [15]): −484.1
Excess HSA Score (THP1 cells; [16]): −391.5
Excess HSA Score (THP1 cells; [17]): −415
Excess HSA Score (THP1 cells; [18]): −149.2201
Excess HSA Score (THP1 cells; [19]): −398.3
Excess HSA Score (THP1 cells; [20]): −448
Excess HSA Score (THP1 cells; [21]): −1390
